Here are results for 3 compounds from US20240181089A1, “PHARMACEUTICAL POLYMER CONJUGATES” (priority 2021, published 2024).

pIC50: −log10 of the molar value. Bounds are passed on as bounds.

Assay [1] relates to folate receptor (FR) isoforms FR-α and FR-β. The settings on record: Vaitilingam et al.; cited from earlier work.
Assay [2] relates to 4T1 murine triple negative breast cancer cell line. The class given is cell-based. The settings on record: 24 h treatment, LDH release, 4T1 cells, expressed in zinc concentration.
Procedure: 24 h in vitro cytotoxicity was tested for each compound against 4T1 murine triple negative breast cancer cell line in obtaining their IC5024h values using lactate dehydrogenase release assay (LDH assay), which were expressed in zinc concentration (μM Zn) units for comparative viewing.
The test system of assay [3] is 4T1 cells. The assay can be described thus: Apoptosis-necrosis flow cytometry with annexinV (A5) and propidium iodide (PI). In kind it is cell-based, murine. In general terms: In flow cytometry, cells or beads pass a laser one at a time.
Assay [4] relates to 4T1 cells. As to the kind of experiment: Confocal microscopy mode-of-action test (cell detachment, anti-AIF, TUNEL, Hoechst) with or without PJ34. The class given is cell-based, murine. Conditions: 1.5 h treatment. From the text:
In addition to the cytotoxicity featuring the simultaneous uptake of PI and A5, Fatokun et al. previously defined PARP-dependent nuclear translocation of AIF and subsequent generation of massive DNA breaks as the hallmark features of parthanatos (Parthanatos: mitochondrial-linked mechanisms and therapeutic opportunities. British journal of pharmacology 171, 2000-2016 (2014)). To investigate whether the observed PI+A5 + necrotic 4T1 cell deaths by the zinc compounds (FIG. 5B and 5C) accompanied these features, we performed confocal microscopy studies after 1.5 h treatment for assessing the occurrence of PARP-dependent cytotoxicity, nuclear AIF translocation, and DNA breaks using fluorescent probes of anti-AIF, TUNEL, and Hoechst 33342 (Hoechst) DNA stain upon co-incubation with a potent PARP1 and PARP2 inhibitor PJ34. Assessment of PAR-polymer content, however, could not be incorporated into this experiment due to unavailability of sufficiently sensitive fluorescent probe for PAR-polymer during this study. Also, any longer treatment time could not be applied to this experiment due to extensive cytotoxic changes observed in the C010DS-Zn treated groups.

The next assay deals with cancer cell lines. Conditions: NPL6; cited from earlier work.
Setting [5] is: concentration-resolved study after 3 h treatment.

On to `CN(CC1CNc2nc(N)[nH]c(=O)c2N1C)c1ccc(C(=O)N[C@@H](CCC(=O)O)C(=O)O)cc1` (some centres unmarked) [DMTHF, N^5, N^10-dimethyl tetrahydrofolate], for which the “folate receptor isoform preference” value in assay [1] is “higher affinity for FR-α over FR-β”.
As usually defined, the pIC50 is the negative decadic logarithm of the IC50, by convention in mol/L. A higher pIC50 goes with a low IC50. With `O=S(=O)([O-])[O-].[Zn+2]` [zinc sulfate], the pIC50 in assay [2] is 4.09. Further, in the assay on 4T1 cells [3] (setting [5]), the “A5+ only apoptotic cell deaths” value is reported as “without notable increases”, the “proportion of PI+ only necrosis” value is reported as 18% and the “proportion of PI+A5+ necrosis” value is listed as 4%. Also, the “PI+ only or PI+A5+ necrotic cell death” value in the assay on 4T1 cells [3] (concentration-resolved study after 3 h treatment, maximum) was at most 26%. Also, the “time after treatment at which mainly PI+A5+ and minor PI+ only necrotic cell death was induced” value in the assay with 4T1 cells [3] (time resolved study, 450 μM Zn) was determined as 1.5 h. Besides, the “nuclear AIF translocation and DNA damages (TUNEL)” value with 4T1 cells [4] is listed as “failed to elicit significantly higher nuclear AIF translocation nor the DNA damages”. The cell detachment result in the assay with 4T1 cells [4] (all concentrations tested) is “did not cause marked cell detachment”.
In the case of zinc pyrithione [ZnPyr2], in the assay on cancer cell lines, the PARP cleavage entry was “complete PARP cleavage” and the “mode of cell death” value is reported as “induced apoptosis in cancer cell lines”.
